# Test results reported in BindingDB's records for doi:10.1074/jbc.M113.507756 (University of Otago Christchurch, 2013).
# Tests used:
# [1] = target: T1, Thyroid peroxidase (Homo sapiens, UniProt P07202); assay: LPO/TPO Selectivity Assay
# T1 sequence (P07202 whole entry): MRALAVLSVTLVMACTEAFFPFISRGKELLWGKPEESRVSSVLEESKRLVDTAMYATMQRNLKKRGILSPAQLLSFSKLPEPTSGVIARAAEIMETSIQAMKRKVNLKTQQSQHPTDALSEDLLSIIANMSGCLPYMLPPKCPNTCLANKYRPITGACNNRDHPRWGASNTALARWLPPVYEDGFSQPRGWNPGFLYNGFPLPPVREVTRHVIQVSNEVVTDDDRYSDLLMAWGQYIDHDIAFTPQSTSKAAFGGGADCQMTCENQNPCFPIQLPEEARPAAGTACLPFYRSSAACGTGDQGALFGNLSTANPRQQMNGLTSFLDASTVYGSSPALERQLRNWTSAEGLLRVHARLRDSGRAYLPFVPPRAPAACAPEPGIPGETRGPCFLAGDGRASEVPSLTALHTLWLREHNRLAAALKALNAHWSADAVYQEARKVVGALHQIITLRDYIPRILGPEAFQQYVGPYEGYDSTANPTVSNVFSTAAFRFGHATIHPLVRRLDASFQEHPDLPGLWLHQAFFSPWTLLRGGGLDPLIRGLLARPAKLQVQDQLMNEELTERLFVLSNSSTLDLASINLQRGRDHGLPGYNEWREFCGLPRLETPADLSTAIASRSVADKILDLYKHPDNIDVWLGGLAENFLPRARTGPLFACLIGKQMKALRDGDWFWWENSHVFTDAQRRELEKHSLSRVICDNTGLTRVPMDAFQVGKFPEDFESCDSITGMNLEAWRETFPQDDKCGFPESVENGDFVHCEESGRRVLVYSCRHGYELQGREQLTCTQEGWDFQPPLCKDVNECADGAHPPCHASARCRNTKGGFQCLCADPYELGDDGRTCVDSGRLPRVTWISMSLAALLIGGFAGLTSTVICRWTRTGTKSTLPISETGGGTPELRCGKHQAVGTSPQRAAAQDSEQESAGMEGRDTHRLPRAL
# Protocol: (§1) The halogenation activities of LPO (EC 1.11.1.7) and TPO (EC 1.11.1.8) were determined using a modified method of that described previously [Ferrari et al., J. Inorg. Biochem., 68:61-69].
# [2] = target: Lactoperoxidase (Bos taurus, UniProt P80025); assay: LPO/TPO Selectivity Assay
# Protocol: as §1
# [3] = target: T2, Myeloperoxidase (Homo sapiens, UniProt P05164); assay: Myeloperoxidase Assay; conditions: pH 6.5
# T2 sequence (P05164 whole entry): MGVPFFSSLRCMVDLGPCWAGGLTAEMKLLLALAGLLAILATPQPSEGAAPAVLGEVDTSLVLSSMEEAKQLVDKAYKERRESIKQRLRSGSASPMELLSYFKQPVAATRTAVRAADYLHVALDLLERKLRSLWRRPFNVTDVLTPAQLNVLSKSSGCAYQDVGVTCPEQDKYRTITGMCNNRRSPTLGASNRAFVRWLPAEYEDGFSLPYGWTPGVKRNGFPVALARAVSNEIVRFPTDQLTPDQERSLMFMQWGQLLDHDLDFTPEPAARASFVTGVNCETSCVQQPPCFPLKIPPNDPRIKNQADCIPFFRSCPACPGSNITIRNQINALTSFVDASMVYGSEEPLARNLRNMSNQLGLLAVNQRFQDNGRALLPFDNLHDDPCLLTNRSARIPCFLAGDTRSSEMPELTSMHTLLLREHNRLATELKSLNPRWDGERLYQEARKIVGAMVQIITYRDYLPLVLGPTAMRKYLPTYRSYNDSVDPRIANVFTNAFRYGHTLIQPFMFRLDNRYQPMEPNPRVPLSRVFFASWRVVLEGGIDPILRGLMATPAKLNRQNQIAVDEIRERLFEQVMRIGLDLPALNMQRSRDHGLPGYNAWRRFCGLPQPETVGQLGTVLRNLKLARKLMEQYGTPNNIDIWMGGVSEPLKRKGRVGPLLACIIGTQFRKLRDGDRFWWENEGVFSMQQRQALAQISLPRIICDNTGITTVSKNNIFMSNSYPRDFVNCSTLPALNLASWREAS
# Protocol: Assays were performed at 22 °C with 2 nM MPO and 10 μM hydrogen peroxide (H2O2) in 20 mM NaH2PO4 buffer, pH 6.5 containing 140 mM NaCl, 10 mM taurine, and 1 mM L-tyrosine. Inhibitor compounds were preincubated with MPO for 15 min prior to the addition of H2O2, and the accumulation of taurine chloramine was determined after 1 min.
# [4] = target: T2, Myeloperoxidase; assay: Surface Plasmon Resonance (SPR); conditions: pH 5
# Protocol: Binding kinetics were determined by surface plasmon resonance (SPR) using a Biacore S51 (Biacore, Uppsala, Sweden). MPO (50 μg/ml dissolved in 10 mM sodium acetate, pH 5.0) was immobilized onto the surface of CM5 sensor chips (Biacore) using surface amine coupling. One of the spots on the sensor surface was left without MPO to control for nonspecific binding. The signal observed in response to analyte binding was as expected linearly related to the amount of immobilized ligand, and 10,000 response units was routinely used to characterize compoundbinding (data not shown). Compounds were dissolved in binding buffer (10 mM HEPES, pH 7.4, 150 mM NaCl, 3 mM Na2EDTA, 0.005% (w/v) surfactant P20, 1% (v/v) DMSO final), and association was assessed during 60-210-s injections. After this time, analyte injection was terminated, and the chip surface was perfused with binding buffer at 30 μl/min for 4-12 min to monitor compound dissociation.
Structure (SMILES),IC50 [1],IC50 [2],IC50 [3],Kd [4]
"O=C(NO)c1c[nH]c(NCc2cc(C(F)(F)F)cc(C(F)(F)F)c2)nc1=O [2-(3,5-bistrifluoromethylbenzylamino)-6-oxo-1H-pyrimidine-5-carbohydroxamic acid (HX1)]",1.59 µM,6.3 µM,,
O=C(NO)c1c[nH]c(NCc2ccccc2)nc1=O [2-(benzylamino)-6-oxo-3H-pyrimidine-5-carbohydroxamic acid (HX3)],1.59 µM,2 µM,0.79 µM,2 µM
O=C(NO)c1ccccc1O [Salicylic hydroxamic acid],2 µM,,25 µM,
O=C(NO)c1ccc(Cc2ccccc2)cc1O [4-benzyl-2-hydroxybenzenecarbohydroxamic acid (HX2)],0.063 µM,0.04 µM,0.0251 µM,0.063 µM
